# Assay results published in PMC10675528 (Pharmaceutics, 2023).
# Like-named read-outs stand apart in the source and are kept apart here.
# Assays:
# [1] = Incubation in the cecal contents of rats (conversion to RLZ); assay type: in vitro ADME, rat; details: for conversion to RLZ in cecal contents (in words): 1 mM, 10% cecal contents, anaerobic
# Experimental: (§1) Male Sprague-Dawley rats (250–260 g) were euthanized using CO2 gas, collecting the intestinal tract contents separately from the small intestine and cecum. The cecal contents were collected in an atmospheric bag (AtmosBag, Sigma, St. Louis, MO, USA) filled with N2 gas. The contents were suspended in pH 6.8 isotonic phosphate buffer (20%, w/v). To 5 mL of the cecal and small intestinal suspensions, each solution (5 mL) of RAS, SAR, and SGR (2.0 mM) dissolved of pH 6.8 isotonic phosphate buffer was added, and then incubated at 37 °C. Incubation with the cecal contents was conducted in the bag filled with N2 gas. A 0.5 mL portion of the mixtures was transferred to a microtube, followed by centrifugation at 10,000× g at 4 °C for 10 min. Supernatants (0.3 mL) were subjected to extraction with EA (0.3 mL) and subsequent centrifugation at 10,000× g at 4 °C for 7 min. The organic layer (0.2 mL) transferred to a new microtube was evaporated, followed by the addition of mobile phase A (0.2 mL).
# [2] = Chemical stability in pH 1.2 and pH 6.8 buffers; assay type: physicochemical; details: 0.1 mM, 12 h
# Experimental: To test the chemical stabilities of SAR and SGR, the two compounds (0.1 mM) were incubated for 12 h in pH 1.2 HCl-NaCl buffer and pH 6.8 isotonic phosphate buffer, and change in the drug concentrations was monitored using HPLC analysis.
# [3] = RLZ concentration in blood (plasma) after oral administration; assay type: in vivo, Sprague-Dawley rats
# Experimental: (§2) The plasma (0.25 mL) was extracted with EA (0.7 mL), and the organic layer (0.5 mL) was evaporated and dissolved in mobile phase A or B (0.1 mL). After filtration through a membrane filter (0.45 μm), the filtrate (20 μL) was injected to HPLC. To determine the concentrations of SAR and RAS in the blood, MeOH (0.9 mL) was added to the plasma (0.1 mL) and centrifuged at 10,000× g at 4 °C for 10 min. After filtration of the supernatants through a membrane filter (0.45 μm), the filtrate (20 μL) was injected to HPLC.
# [4] = tested on: DNBS-induced rat colitis; test: DNBS-induced rat colitis, anticolitic effects; assay type: in vivo, Sprague-Dawley rats
# Experimental: (§3) Experimental colitis was induced in rats as previously described. […] The rats in each group were treated orally once daily, and the medication began three days after the induction of inflammation, and continued for six days. Twenty-four hours after the last medication, the anticolitic effects of drugs were evaluated assessing macroscopic and microscopic indices. Colonic-damage scores (CDS) were assigned using the modified scoring system shown in Supplementary Table S1. Colonic damage was scored using 4 independent observers blinded to the treatment conditions. Myeloperoxidase (MPO) activity was determined in the inflamed distal colon (4 cm) as previously described.
# To prepare samples for Western blot analysis, tissue (distal colon) samples (0.2 g) were minced and homogenized in 2.0 mL of pre-chilled radioimmunoprecipitation assay (RIPA) buffer, which was agitated on ice for 0.5 h, and then centrifuged at 10,000× g at 4 °C for 10 min. The centrifuged lysates were subjected to protein quantification using the bicinchoninic acid reagent (Thermo Fisher Scientific, Waltham, MA, USA). SDS-PAGE on a 7.5 or 10% gel was used for Western blot analysis of tissue lysates. To detect glycogen synthase (GS), phosphorylated GS (p-GS), cyclooxygenase (COX)-2, and inducible nitric oxide synthase (iNOS), anti-GS (Santa Cruz Biotechnology, Dallas, TX, USA), anti-p-GS (Cell Signaling Technology, Danvers, MA, USA), anti-COX-2 (sc-365374, Santa Cruz Biotechnology), and anti-iNOS (NOS-2) antibody (sc-7271, Santa Cruz Biotechnology) were used. SuperSignal chemiluminescence substrate (Thermo Fisher Scientific, Waltham, MA, USA) was used to visualize bands. α-Tubulin (Santa Cruz Biotechnology) was used as a loading control. The Western blot images were quantified using Image Lab software (version 5.2 build 14; Bio-Rad, Hercules, CA, USA). The mean of the quantified values was presented with the Western blot images in the figures (n = 3 for cell experiments, n = 5 for animal experiments).
# ELISA kits were used to determine the level of CINC-3 and IL-10 in the inflamed distal colon as described previously. The ELISA was performed according to the manufacturer’s instructions.
# [5] = tested on: Caco-2 cell monolayer; test: Cell permeability assay using Caco-2 monolayers; assay type: in vitro ADME; details: 500 µM apical, up to 24 h, compared with RAS
# Experimental: Caco-2 cells (4 × 10^5 per insert) were seeded in Transwell 6-well inserts with a pore size of 0.4 μm (SPL Inc., Houston, TX, USA). DMEM containing 1% penicillin/streptomycin was added to the basolateral (3.0 mL) and apical (insert) compartments (2.0 mL). The cells were grown until the cell monolayer’s transepithelial electrical resistance value (EMD Millipore, Billerica, MA, USA) reached 2000 Ω.cm^2. […] At appropriate time intervals, the drug concentration in the basolateral compartment was determined using HPLC.
# [6] = Incubation in the small intestinal contents of rats; assay type: in vitro ADME; details: rat small intestinal contents; for change in concentration in small intestinal contents: 12 h; for release of RLZ in the small intestinal contents: Supplementary Figure S2
# Experimental: as §1
# [7] = Distribution coefficient (log D6.8), 1-octanol/pH 6.8 isotonic phosphate buffer; assay type: physicochemical; details: 1-octanol/isotonic phosphate buffer (pH 6.8)
# Experimental: To measure distribution coefficients of test compounds in 1-octanol/pH 6.8 isotonic phosphate buffer system, 1-octanol and pH 6.8 isotonic phosphate buffer was pre-saturated with each other. […] Distribution of test compounds in the organic phase/aqueous phase was determined by quantifying the concentration of each test compound in the organic or aqueous phase using a UV-Vis spectrophotometer (Shimadzu, Tokyo, Japan) at 263 nm. The following equation was employed to calculate the distribution coefficients (log D6.8). In the equation, CO is the initial concentration of a compound in the 1-octanol phase or aqueous phase; Cw is the equilibrium concentration of a compound in the aqueous phase; and COc is the equilibrium concentration of a compound in 1-octanol: log D6.8=log(COc/CW)=log(COc/(CO−COc]
# [8] = tested on: GSK3β; test: p-GS level in the inflamed distal colon (Western blot); assay type: in vivo, Sprague-Dawley rats; details: oral once daily for 6 days
# Experimental: as §3
# To prepare samples for Western blot analysis, tissue (distal colon) samples (0.2 g) were minced and homogenized in 2.0 mL of pre-chilled radioimmunoprecipitation assay (RIPA) buffer, which was agitated on ice for 0.5 h, and then centrifuged at 10,000× g at 4 °C for 10 min. The centrifuged lysates were subjected to protein quantification using the bicinchoninic acid reagent (Thermo Fisher Scientific, Waltham, MA, USA). […] The Western blot images were quantified using Image Lab software (version 5.2 build 14; Bio-Rad, Hercules, CA, USA). The mean of the quantified values was presented with the Western blot images in the figures (n = 3 for cell experiments, n = 5 for animal experiments).
# [9] = Concentration of the conjugates in the blood after oral administration; assay type: in vivo, Sprague-Dawley rats; details: equimolar dose, 4, 8, 12 h, Supplementary Figure S4
# Experimental: as §2, with “Male Sprague-Dawley rats fasted for 24 h except for water. […] At 4, 8, and 12 h after the oral treatment, the plasma (0.3 mL) was obtained from the blood samples (collected via cardiac puncture) centrifuged at 10,000× g at 4 °C for 10 min. The” for “The”
# [10] = 1-octanol/pH 6.8 buffer; cited from earlier work
# [11] = cited from earlier work
# [12] = SAR L and H doses, dose-dependent, Western blot
# [13] = oral once daily for 6 days, ELISA
SMILES,melting point,conversion to RLZ in cecal contents (in words) [1],change in concentration in buffer solutions [2],"level of IL-10 in the inflamed colon [4, 13]",change in concentration in small intestinal contents [6],logD at 12 h [7],level of p-GS in the inflamed colon [8],conjugate (prodrug) in the blood [9],release of RLZ in the small intestinal contents [6],further results
"O=C(O)CCC(=O)N[C@@H](CC(=O)O)C(=O)Nc1nc2ccc(OC(F)(F)F)cc2s1 [SAR, (N-succinyl-L-aspart-1-yl)riluzole]",202 °C (dec.),readily converted to RLZ in a time-dependent manner,No significant change,further augmented,No significant change,-2.1,substantially diminished,not detectable,,"AR detected during incubation of SAR with the cecal contents ([1]; cecal contents): no AR was detected; systemic absorption of RLZ (RLZ in blood, in words) ([3]; oral SAR 19.2 mg/kg): barely detectable; maximal plasma concentration of RLZ relative to oral RAS ([3]; oral, equimolar dose): approximately one-seventh; MPO activity in the inflamed distal colon ([4]; SAR L and H doses, dose-dependent): lowered; CINC-3 level in the inflamed distal colon ([4]; SAR L and H doses, dose-dependent, ELISA): lowered; COX-2 level in the inflamed distal colon [4, 12]: lowered; iNOS level in the inflamed distal colon [4, 12]: lowered; colonic damage and inflammation compared with SSZ ([4]; SAR even at lower dose vs SSZ 30 mg/kg): more effective than SSZ; all anticolitic indices compared with RAS ([4]; equimolar dose (equivalent to 10 mg/kg RLZ)): significantly superior to RAS; colonic damage (CDS, H&E staining) ([4]; oral once daily for 6 days, SAR equivalent to 5 (L) and 10 (H) mg/kg RLZ): mitigated the pathological state of the inflamed colon at both doses; permeation through Caco-2 cell monolayer [5]: less efficient than RAS"
"N[C@@H](CC(=O)O)C(=O)Nc1nc2ccc(OC(F)(F)F)cc2s1 [AR, N-(L-aspart-1-yl)riluzole]",163 °C,conversion percentage to RLZ was lower than that of SAR,,,,0.8,,,released a substantial amount of RLZ,
"N[C@@H](CCC(=O)O)C(=O)Nc1nc2ccc(OC(F)(F)F)cc2s1 [GR, N-(L-glutam-1-yl)riluzole]",,,,,,1,,,released a substantial amount of RLZ,
"O=C(O)c1cc(/N=N/c2nc3ccc(OC(F)(F)F)cc3s2)ccc1O [RAS, reference compound]",,,,further augmented,,,substantially diminished,detected,,"distribution coefficient (log D6.8) [10]: 2.1; peak blood concentration of RLZ relative to that after oral RLZ ([3]; oral, equimolar doses (10 mg/kg RLZ)): approximately one-fifth; peak blood concentration of RLZ relative to that after oral RLZ [11]: approximately one-fifth"
"O=C(O)CCC(=O)N[C@@H](CCC(=O)O)C(=O)Nc1nc2ccc(OC(F)(F)F)cc2s1 [SGR, (N-succinyl-L-glutam-1-yl)riluzole]",,resistant to cecal conversion of RLZ,No significant change,,No significant change,-2,,,,
